Reference: patent US20040023990A1, “Use of pyrazolo[4,3-d]pyrimidines” (priority 2000, published 2004)

melting point: 178 °C
SMILES: CCCc1nn(C)c2c(NCc3ccc(OC)c(Cl)c3)nc(CCC(=O)O)nc12 [Example 2, 3-[7-(3-chloro4-methoxybenzylamino)-1-methyl-3-propyl-1H-pyrazolo-[4,3-d]pyrimidin-5-yl]propionic acid]
